Measurements as given in publication PMC10539501 (Nature Communications, 2023).
Read-outs that look alike come from different tables or passages of the source. Values belong to the compound of their own block, whether it stands above or below them. Non-standard residues stand in square brackets, D forms with d. Residues, ends and D or L forms follow the SMILES beside them.

Assays:
[1] = blood plasma, cited from earlier work
From the text: Next, we sought to assess the in vivo efficacy of the thioamidated somatostatin analogs post s.c. administration. Somatostatin, first known to inhibit the release of growth hormone, induces its biological effects by interacting with five of its G-protein-coupled receptor subtypes SSTR1-SSTR5[50]. Out of which, the SSTR2 and SSTR5 have gained significant attention due to their role in mediating the inhibition of growth hormone and antiproliferative effects of somatostatin on tumor growth. […]

[2] = assay type: physicochemical
[3] = assay type: physicochemical; remark: listed apart in the source
pepsin [4] = molecular target: T1, pepsin (Sus scrofa, UniProt P00791); settings: pH 1.2
T1 sequence (P00791 60-385): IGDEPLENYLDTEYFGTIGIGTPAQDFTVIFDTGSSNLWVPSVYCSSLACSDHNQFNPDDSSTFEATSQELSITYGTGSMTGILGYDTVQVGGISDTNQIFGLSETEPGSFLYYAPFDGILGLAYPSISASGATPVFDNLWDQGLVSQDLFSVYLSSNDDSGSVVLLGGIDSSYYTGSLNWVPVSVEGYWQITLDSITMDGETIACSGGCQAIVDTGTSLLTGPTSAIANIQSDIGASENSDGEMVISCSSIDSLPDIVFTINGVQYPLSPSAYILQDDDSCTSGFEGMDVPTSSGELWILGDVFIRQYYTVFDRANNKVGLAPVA
Procedure: (§1) A stability assessment of the peptides was done in simulated gastric (SGF) and intestinal (SIF) fluids and human liver microsomes. The degradation kinetics of the aliquoted samples at desired time points were analyzed through RP-HPLC.

[5] = rat, in vivo
Procedure: (§2) All animals were housed individually in the animal facility at Anthem Biosciences Pvt. Ltd and were acclimatized for 3 days. All animals were fasted overnight before dosing, whereas access to water was provided ad libitum. Peptides were administered orally and via s.c. route and blood samples were collected at different time points through a jugular vein catheter.

in vivo [6] = settings: male, Wistar, rat
Procedure: as §2

in vitro [7] = settings: both, human, plasma
Procedure: Blood was freshly drawn from three healthy adults, two male and one person of 26–28 year old. […] The plasma was separated by centrifugation. […] For checking metabolic stability, the required volume of plasma was pre-incubated at 37 °C prior to the experiment for 2 min, followed by spiking with the peptides. At different time points, plasma was aliquoted. The supernatant was separated and used for RP-HPLC quantification. Rapid Equilibrium Dialysis (RED) assay was performed to assess the plasma protein binding of the peptides following the supplier’s protocol.

pepsin [8] = molecular target: T1, pepsin; test: in vitro; settings: simulated gastric fluid, pH 1.2
Procedure: as §1

in vitro [9] = settings: pig, simulated intestinal fluid
in vitro [10] = settings: human, microsomes
Procedure: as §1

in vitro [11] = settings: both, human, plasma; remark: listed apart in the source
[12] = Retention in hydrophobic C18 column by HPLC; settings: Supplementary Fig 3d, logD7.4 vs tR
[13] = HDX of amide protons by NMR in DMSO-d6:D2O (8:2)
Procedure: (§3) As hydrogen bonding and solvation of NH groups play an important role in the permeability of macrocycles, we determined the solvent accessibility of individual amide protons in 10 and 10a–10f by hydrogen-deuterium exchange (HDX) through NMR spectroscopy (Figs. 2a–c).
(§4) Spectra were recorded on a Bruker AV 500 MHz spectrometer at 25 °C.

[14] = HDX of amide protons by NMR in CDCl3:CD3OD (8:2)
Procedure: as §3, §4

[15] = PAMPA passive permeability; assay type: in vitro ADME; settings: Pe;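 also: passive permeability across an artificial membrane in 96-well pre-coated PAMPA plates, which lack transporters and efflux systems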
Procedure: Encouraged by this, the passive permeability of the analogs was evaluated using an artificial membrane (PAMPA), which measures permeability of compounds in the absence of transporters and efflux systems[32].
96-well BD Corning® pre-coated PAMPA plates were used following the supplier’s protocol, details in Supplementary Information.

SSTR2 = molecular target: T2, SSTR2 (Homo sapiens, UniProt P30874); test: GloSensor assay, inhibition of forskolin-induced cAMP production; assay type: cell-based
T2 construct: expressed in transfected cells; host or cells: HEK-293T (CRL-3216)
T2 sequence (P30874 whole entry): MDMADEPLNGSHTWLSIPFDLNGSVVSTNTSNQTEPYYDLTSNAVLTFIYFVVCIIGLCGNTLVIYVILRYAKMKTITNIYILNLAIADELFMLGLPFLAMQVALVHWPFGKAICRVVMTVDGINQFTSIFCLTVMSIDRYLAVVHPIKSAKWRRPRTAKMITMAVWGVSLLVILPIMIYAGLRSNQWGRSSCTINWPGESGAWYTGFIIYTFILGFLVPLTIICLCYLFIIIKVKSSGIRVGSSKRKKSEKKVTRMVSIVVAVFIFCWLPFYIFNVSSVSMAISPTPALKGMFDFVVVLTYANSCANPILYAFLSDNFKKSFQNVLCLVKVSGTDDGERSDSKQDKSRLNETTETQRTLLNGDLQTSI

SSTR5 = molecular target: T3, SSTR5 (Homo sapiens, UniProt P35346); test: as above; assay type: cell-based
T3 construct: expressed in transfected cells; host or cells: HEK-293T (CRL-3216)
T3 sequence (P35346 whole entry): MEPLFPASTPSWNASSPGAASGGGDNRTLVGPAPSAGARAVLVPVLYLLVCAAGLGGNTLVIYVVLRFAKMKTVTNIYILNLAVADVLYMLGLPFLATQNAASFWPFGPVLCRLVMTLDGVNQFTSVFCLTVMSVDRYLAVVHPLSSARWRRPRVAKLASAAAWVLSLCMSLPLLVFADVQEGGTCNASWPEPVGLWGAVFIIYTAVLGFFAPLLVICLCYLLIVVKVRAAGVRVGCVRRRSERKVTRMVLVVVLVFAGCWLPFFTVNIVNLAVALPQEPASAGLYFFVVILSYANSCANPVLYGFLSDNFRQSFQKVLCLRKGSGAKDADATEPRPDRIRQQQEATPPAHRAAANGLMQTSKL
Procedure: HEK-293T cells (CRL-3216 from ATCC, procured from NCCS, Pune) were co-transfected with human somatostatin receptor subtypes 2 & 5, plasmid cDNA, and cAMP biosensor (pGloSensorTM-22F plasmid; Promega Corp.) using PEImax. Ligand incubation was followed by the addition and incubation of forskolin (FSK) to the plate. Dose-dependent inhibition of forskolin-induced cAMP production by the peptide ligands was measured using a luminescence plate reader. An elaborate description of the assay setup has been provided in Supplementary Information.

[16] = tested on: growth hormone (GH) release; test: In vivo inhibition of growth hormone release (sandwich ELISA); parameters: species or system rats
Procedure: In vivo inhibition of GH. Finally, we estimated the in vivo efficacy of 13 and the thioamidated analogs 13b, 13d, and 13e in suppressing the release of growth hormone (GH) post subcutaneous injection at 250 μg/kg dosage (Fig. 7e). 13a was also included as a negative control to assess its effect on GH release. The rats were bled from their orbital sinus, and the plasma GH levels were evaluated through sandwich ELISA. […] This correlates well with the high plasma concentration of 13 at the initial time points and a rapid drop within 2 h of s.c. administration (Fig. 7c). […] In contrast, the inhibitory effect lasts longer in 13b, 13d, and 13e showing a significant reduction in plasma GH levels within 24–48 h (Fig. 7h). […] The rapid drop in plasma concentration of 13 is responsible for its least in vivo efficacy.
Animal housing and acclimatization were done at Central Animal Facility, IISc Bangalore, as mentioned in the previous section, following protocols from the IEAC and CPCSEA. […] Samples were processed as discussed in Supplementary Information, and sandwich ELISA was performed to measure the growth hormone level in blood plasma. For acute toxicity, after peptide injection (s.c.), blood samples were collected on the 14th day for liver and kidney function tests.

in vivo [17] = settings: male, rat, sc
Procedure: Subsequently, we selected 13a, 13b, 13d, and 13e for assessing their plasma exposure post single dose subcutaneous injection into male Sprague Dawley rats.
as §2

physchem = settings: pH 7.4
[18] = 20% CD3OD in CDCl3, % remaining after 24 hours

Procedure for human liver microsomes: as §1

SMILES: C[C@H](N)C(=O)NCC(=O)N[C@H]1CSSC[C@@H](C(=O)O)NC(=O)[C@H](CO)NC(=O)[C@H]([C@@H](C)O)NC(=O)[C@H](Cc2ccccc2)NC(=O)[C@H]([C@@H](C)O)NC(=O)[C@H](CCCCN)NC(=O)[C@H](Cc2c[nH]c3ccccc23)NC(=O)[C@H](Cc2ccccc2)NC(=O)[C@H](Cc2ccccc2)NC(=O)[C@H](CC(N)=O)NC(=O)[C@H](CCCCN)NC1=O [SRIF-14]
plasma half-life [1]: 3 min
plasma half-life ([1]; listed as native somatostatin): ~ 3 min

% solubility [2]: 97%
logD heptane ethylene glycol [3]: 0.46
Half lives (SGF) set1 (pepsin [4]): 10 min
Half lives (human liver microsomes): 6.7
Intrinsic clearance (CLint) Avg (human liver microsomes; human): 225 µL/min/mg
t1/2 in human blood plasma: 8 h
%F [5]: 0%
time over which the peptide is detectable in plasma ([5]; po, 10 mg/kg): ≤ 1 h
AUC(0-t) (in vivo [6]; iv): 548 ng·h/mL
Cmax (in vivo [6]; iv): 1050 ng/mL
MRT (in vivo [6]; iv): 1.6 h
Vd (in vivo [6]; iv): 4.1 L/kg
clearance (in vivo [6]; iv): 28.4 mL/min/kg
AUC(0-t) (in vivo [6]; po, 10 mg/kg): 0.9 ng·h/mL
Cmax (in vivo [6]; po, 10 mg/kg): 3.5 ng/mL
MRT (in vivo [6]; po, 10 mg/kg): 0.2 h
fraction unbound (in vitro [7]): 0.51
half-life (pepsin [8]): 0.2 h
remaining at 5 min (pepsin [8]): 67%
remaining at 10 min (pepsin [8]): 54%
remaining at 20 min (pepsin [8]): 40%
remaining at 0.5 h (pepsin [8]): 34%
remaining at 1 h (pepsin [8]): 22%
remaining at 2 h (pepsin [8]): 16%
remaining at 4 h (pepsin [8]): 10%
remaining at 8 h (pepsin [8]): 6%
remaining at 12 h (pepsin [8]): 2%
remaining at 24 h (pepsin [8]): 0%
half-life (in vitro [9]): 0.267 h
remaining at 10 min (in vitro [9]): 57.1%
remaining at 0.5 h (in vitro [9]): 39%
remaining at 1 h (in vitro [9]): 30.7%
remaining at 2 h (in vitro [9]): 13.4%
remaining at 4 h (in vitro [9]): 12%
remaining at 8 h (in vitro [9]): 7.3%
remaining at 12 h (in vitro [9]): 5.5%
remaining at 24 h (in vitro [9]): 3%
remaining at 5 min (in vitro [10]): 55%
remaining at 10 min (in vitro [10]): 40%
remaining at 20 min (in vitro [10]): 33%
remaining at 0.5 h (in vitro [10]): 29%
remaining at 0.75 h (in vitro [10]): 22%
remaining at 1 h (in vitro [10]): 14%
half-life (in vitro [11]): 8 h
remaining at 1 h (in vitro [11]): 86%
remaining at 3 h (in vitro [11]): 80%
remaining at 5 h (in vitro [11]): 67%
remaining at 7 h (in vitro [11]): 59%
remaining at 9 h (in vitro [11]): 43%
remaining at 12 h (in vitro [11]): 37%
remaining at 24 h (in vitro [11]): 24%
remaining at 36 h (in vitro [11]): 19%
remaining at 48 h (in vitro [11]): 13%
remaining at 60 h (in vitro [11]): 4%
remaining at 72 h (in vitro [11]): 4%
tR [12]: 9.3 min
Half-life of D-Leu1 amide proton (HDX) ([13]; HDX by NMR, 20% D2O in DMSO-d6): 0.25 h
Half-life of Leu2 amide proton (HDX) ([13]; HDX by NMR, 20% D2O in DMSO-d6): 1.52 h
Half-life of Leu3 amide proton (HDX) ([13]; HDX by NMR, 20% D2O in DMSO-d6): 3.28 h
Half-life of Leu6 amide proton (HDX) ([13]; HDX by NMR, 20% D2O in DMSO-d6): 7.83 h
Half-life of Tyr5 amide proton (HDX) ([13]; HDX by NMR, 20% D2O in DMSO-d6): 0.817 h
Half-life of D-Leu1 amide proton (HDX) ([14]; 20% CD3OD in CDCl3): 7.25 h
Half-life of Leu2 amide proton (HDX) ([14]; 20% CD3OD in CDCl3): 2 min
Half-life of Leu3 amide proton (HDX) ([14]; 20% CD3OD in CDCl3): > 24 h
Half-life of Leu6 amide proton (HDX) ([14]; 20% CD3OD in CDCl3): > 24 h
Half-life of Tyr5 amide proton (HDX) ([14]; 20% CD3OD in CDCl3): 1.75 h
% intact NH, Leu3 [14, 18]: 72%
% intact NH, Leu6 [14, 18]: 90%
SMILES: CC(C)C[C@@H]1NC(=O)[C@H](Cc2ccc(O)cc2)NC(=O)[C@H]2CCCN2C(=O)[C@H](CC(C)C)NC(=O)[C@H](CC(C)C)NC(=O)[C@@H](CC(C)C)NC1=O [compound 10, cyclo(-D-Leu^1-Leu-Leu-D-Pro-Tyr-Leu^6-)] (cyclo(LL[dP]YL[dL]))

SMILES: C[C@@H](O)[C@@H]1NC(=O)[C@H](CCCCN)NC(=O)[C@@H](Cc2c[nH]c3ccccc23)NC(=O)[C@H](Cc2ccccc2)NC(=O)[C@@H]2CCCN2C(=O)[C@H](Cc2ccccc2)NC1=O [compound 13, cyclo(-D-Trp^1-Lys-Thr-Phe-Pro-Phe^6-)] (cyclo(PF[dW]KTF))
Papp [15]: 1.34 ×10⁻⁶ cm/s
logD heptane ethylene glycol [3]: -1.43
IC50 (SSTR2): 16.6 ± 4.2 nM
IC50 (SSTR5): 105 ± 24.2 nM
AUC 0_24 ([16]; growth hormone AUC 0-24 h, mean of n = 3): 504 ng·h/mL
AUC 0_48 ([16]; growth hormone AUC 0-48 h, mean of n = 3): 1371 ng·h/mL
AUC 24_48 ([16]; growth hormone AUC 24-48 h, mean of n = 3): 817 ng·h/mL
inhibition of unstimulated GH release ([16]; rats, 250 μg/kg s.c., plasma GH by sandwich ELISA over 48 h): significant inhibition
t1/2 in human blood plasma: 15 ± 0.9 h
level at 0.5 h (in vivo [17]; Sprague Dawley): 195 ng/mL
level at 1 h (in vivo [17]; Sprague Dawley): 128 ng/mL
level at 2 h (in vivo [17]; Sprague Dawley, 250 ug/kg): 8 ng/mL
half-life (in vivo [17]; Sprague-Dawley): 0.3 ± 0.05 h
logD (physchem): -1.23
fraction unbound (in vitro [7]): 0.24
half-life (in vitro [9]): 1.8 h
half-life (in vitro [11]): 14 h
t1/2 for all HNs (HDX) ([13]; HDX experiment by NMR, solvent not stated at the place (Supplementary Fig. 18)): < 5 min
Half-lives (min), amide proton D-Trp1 ([13]; Supplementary Fig 18b, HDX of amide proton of D-Trp1, solvent not given): >5 min
Half-lives (min), amide proton Lys2 ([13]; Supplementary Fig 18b, HDX of amide proton of Lys2, solvent not given): >5 min
Half-lives (min), amide proton Phe4 ([13]; Supplementary Fig 18b, HDX of amide proton of Phe4, solvent not given): >5 min
Half-lives (min), amide proton Phe6 ([13]; Supplementary Fig 18b, HDX of amide proton of Phe6, solvent not given): >5 min
Half-lives (min), amide proton Thr3 ([13]; Supplementary Fig 18b, HDX of amide proton of Thr3, solvent not given): >5 min
